In article PMC9235088, “Characterization of a new L-carnosine synthase mined from deep-sea sediment metagenome” (Microbial Cell Factories, 2022) one finds Km data, which are given here for one molecule.

This experiment concerns T1, gene_236976 product (L-carnosine synthase, L-aminopeptidase).
T1 construct: codon-optimised synthetic gene in pET-26b (NcoI/XhoI), his6-tagged, E. coli BL21(DE3), Ni-agarose purified
Briefly: HPLC of L-carnosine formed, Michaelis-Menten fit. Type of experiment: biochemical, metagenome: deep-sea sediment. As to conditions: 100 mM β-AlaOMe, 0-400 mM L-histidine; assay buffer Na2CO3/NaHCO3 pH 10.0, 30 °C; read-out: L-histidine^b / Km. The text has this: HPLC of L-carnosine formed, Michaelis-Menten fit on gene_236976 product (L-carnosine synthase, L-aminopeptidase)

Take `N[C@@H](Cc1cnc[nH]1)C(=O)O` [L-histidine]: the Km is 7.73 ± 0.29 mM.
